Assay results as given in patent US12241085B2, “Human pluripotent stem cell derived neurodegenerative disease models on a microfluidic chip” (priority 2018, dated 2025).

Assays:
[1] = as stated for the marketed drug; cited from earlier work
[2] = test system: iBMECs co-cultured with primary human astrocytes and pericytes; test: TNFα perfusion of blood compartment of organ-chip with iBMECs, astrocytes and pericytes; format: cell-based; conditions: 10 or 100 ng/ml overnight in blood compartment
Description: While astrocytes and iBMECs can remain in their respective channels, astrocytes processes protruded through the pores to form direct cell-to-cell contact with the iBMECs, mimicking the astrocyte-end-feet observed in vivo.
In order to quantify the percentage of vascular surface covered with astrocyte protrusions (end-feet like structures), the vascular surface of the are washed in DMEM (without FBS) and stained with the fluorescently labeled wheat germ agglutinin (WGA-647 Invitrogen), a […] able to bind to the vascular glycocalyx (DOI: 10.1002jemt.22602). After 15 minutes at room temperature, chips were rinsed twice with fresh DMEM, fixed in 2% PFA for 20 minutes at room temperature and stained for the astrocyte marker GFAP (Abcam). Following incubation with the anti-mouse secondary antibody (Invitrogen, Alexa Fluor 488) and HOECHS (Abcam) chips were washed in PBS and imaged via confocal microscopy (Zeiss LSM850).
The area underneath the porous membrane was localized using the WGA-647 signal (that stained the whole endothelial surface) and the nuclear fluorescence signal (HOECHST) of endothelial cells. Then, five random areas of each chip were imaged using the GFAP fluorescent (488) signal using a 10× objective (Zeiss). ImageJ software was used to subtract background and then convert the digital signal detected in the GFAP channel into a binary image. Finally, percentage of signal coverage was computed from the binary image as the ratio of bright pixels to the total number of pixels in the image. Image processing and quantification was performed with an automatic macro compiled in ImageJ in order to ensure unbiased signal measurements. Numerical values were collected and statistically analyzed using Graphpad Prism V7.

| Compound | known BBB permeability [1] | blood-to-brain leakage of dextran after vascular stimulation [2] | astrocyte end-feet-like structures covering the vascular surface ([2]; vs control) | astrocyte morphology ([2]; vs control) |
| --- | --- | --- | --- | --- |
| CC[C@@H](C(N)=O)N1CCCC1=O [Levetiracetam] | can efficiently penetrate the BBB | – | – | – |
| TNFα | – | increase in blood-to-brain leakage | decrease in end-feet-like structures | change in astrocyte morphology |
